Test system: COVID-19 virus
Assay: Inhibition of COVID-19 virus replication in Vero E6 cells (vRNA in supernatant by qRT-PCR)
Assay type: cell-based, COVID-19 virus (clinical isolates) in Vero E6 cells
Conditions: for antiviral effect (viral RNA replication): Vero cells infected with COVID-19 virus, MOI 0.05, compound at concentrations of 30 μM and 10 μM, FIG. 2
Method: In order to further confirm the results of enzyme inhibition in vitro, whether the bromophenol-pyrazoline compounds can prevent COVID-19 virus replication in Vero E6 cells infected with clinical isolates of COVID-19 virus was evaluated in the present invention.
Specific operations: The pre-seeded Vero E6 cells (5×10^4 cells/well) were pre-treated for 1 hr with various concentrations of bromophenol-pyrazoline compounds to be tested, and then infected for 2 hrs by adding COVID-19 virus (with an MOI of 0.05). Then, the mixture of the virus and compound was removed, and the cells were further incubated in a fresh medium containing the bromophenol-pyrazoline compound. After 24 hrs, the cell supernatant was collected, and the vRNA in the supernatant was analyzed by qRT-PCR.

| Structure (SMILES) | EC50 (Severe acute respiratory syndrome coronavirus 2, Vero C1008, read-out: EC50, inhibition of virus replication) [µM] | antiviral effect (viral RNA replication) |
| --- | --- | --- |
| CCOc1ccc(Oc2ccc(C3=NNC(c4cc(O)c(O)c(Br)c4Br)C3)cc2)cc1 (stereo not shown) [Compound 6a, 3,4-dibromo-5-(3-(4-(4-ethoxyphenoxy)phenyl)-4,5-dihydro-1H-pyrazol-5-yl)-1,2-dihydroxybenzene] | 4.45 | strong antiviral effects |
| CCOc1ccc(Oc2ccc(C3=NN(C(C)=O)C(c4cc(O)c(O)c(Br)c4Br)C3)cc2)cc1 (stereo not shown) [Compound 6c, 5-(2,3-dibromo-4,5-dihydroxyphenyl)-3-(4-(4-ethoxyphenoxy)phenyl)-4,5-dihydro-1H-1-acetyl pyrazole] | – | strong antiviral effects |
| CCOc1ccc(Oc2ccc(C3=NN(C=O)C(c4cc(O)c(O)c(Br)c4Br)C3)cc2)cc1 (stereo not shown) [Compound 6b, 5-(2,3-dibromo-4,5-dihydroxyphenyl)-3-(4-(4-ethoxyphenoxy)phenyl)-4,5-dihydro-1H-pyrazol-1-carboxaldehyde] | – | strong antiviral effects |

— patent publication US11820763B2, “Bromophenol-pyrazoline compound and synthesis method and use thereof” (Lead High Technology (QingDao) Co., Ltd, priority 2020, dated 2023)
